Data from patent publication US9518018B2, “3-alkoxy, thioalkyl and amino-4-amino-6-(substituted)picolinates and their use as herbicides” (Dow AgroSciences LLC, priority 2011, dated 2016).

Tested on: desired test plant species
Test: Foliar-applied postemergence herbicidal activity in direct seeded rice (Table 6)
Format: in vivo
Details: 21 DAA
From the text: Seeds or nutlets of the desired test plant species were planted in a soil matrix prepared by mixing a loam soil (43 percent silt, 19 percent clay, and 38 percent sand, with a pH of about 8.1 and an organic matter content of about 1.5 percent) and river sand in an 80 to 20 ratio. The soil matrix was contained in plastic pots with a surface area of 139.7 cm^2. When required to ensure good germination and healthy plants, a fungicide treatment and/or other chemical or physical treatment was applied. The plants were grown for 10-17 d in a greenhouse with an approximate 14-h photoperiod which was maintained at about 29° C. during the day and 26° C. during the night. Nutrients and water were added on a regular basis and supplemental lighting was provided with overhead metal halide 1000-Watt lamps as necessary. The plants were employed for testing when they reached the second or third true leaf stage. Treatments consisted of compounds 45, 34, and 66. Weighed amounts of technical compounds were placed in individual 25 mL glass vials and dissolved in 8 mL of 97:3 v/v acetone-DMSO to obtain stock solutions. […] The spray application solutions were prepared by removing 4 mL of the stock solution and diluting with 4 mL of 97:3 v/v acetone-DMSO and continued serial dilution to obtain 1⁄2×, 1⁄4×, 1⁄8×, and 1/16× rates of the high rate. Spray solutions were diluted to the appropriate final concentrations with the addition of 8 mL of an aqueous mixture of 1.875% (v/v) Agri-dex crop oil concentrate. The final 12-mL spray solutions each contained 1.25% (v/v) Agri-dex crop oil concentrate, 32.3% acetone, and 1.0% DMSO. Compound requirements are based upon a 12 mL application volume at a rate of 187 L/ha. Spray solutions were applied to the plant material with an overhead Mandel track sprayer equipped with […] nozzles calibrated to deliver 187 L/ha over an application area of 0.503 square meters (m^2) at a spray height of 18 inches ([…]) above average plant canopy height. Control plants were sprayed in the same manner with the solvent blank. The treated plants and control plants were placed in a greenhouse as described above and watered by sub-irrigation to prevent wash-off of the test compounds. After approximately 3 weeks, the condition of the test plants, compared with that of the untreated plants, was determined visually and scored on a scale of 0 to 100 percent where 0 corresponds to no injury and 100 corresponds to complete kill. By applying the well-accepted probit analysis as described by J. Berkson in Journal of the […], 48, 565 (1953) and by D. Finney in “Probit Analysis” Cambridge University Press (1952) or by plotting the mean data and fitting a logarithmic curve to the portion of the data where there was a dose response using Microsoft Excel®, the above data can be used to calculate GR50 and GR90 values, which are defined as growth reduction factors that correspond to the effective dose of herbicide required to kill or control 50 percent or 90 percent, respectively, of a target plant.

## COc1c(C(=O)OCc2ccccc2)nc(-c2ccc(Cl)c(OC)c2F)c(F)c1N [Compound 66, benzyl 4-amino-6-(4-chloro-2-fluoro-3-methoxyphenyl)-5-fluoro-3-methoxypicolinate]
ECHCO (Echinochloa colonum, junglerice), 4.38 g ae/ha
  Mean Visual Injury (%)-21 Days After Application ECHCO: 80%
ECHCO (Echinochloa colonum, junglerice), 8.75 g ae/ha
  Mean Visual Injury (%)-21 Days After Application ECHCO: 89%
ECHCO (Echinochloa colonum, junglerice), 17.5 g ae/ha
  Mean Visual Injury (%)-21 Days After Application ECHCO: 93%
ECHCO (Echinochloa colonum, junglerice), 35 g ae/ha
  Mean Visual Injury (%)-21 Days After Application ECHCO: 94%
ECHCO (Echinochloa colonum, junglerice), 70 g ae/ha
  Mean Visual Injury (%)-21 Days After Application ECHCO: 94%
ECHCO (Echinochloa colonum, junglerice), dose to kill or control 50 percent
  GR50 ECHCO: <2.19 g ae/ha
ECHCO (Echinochloa colonum, junglerice), dose to kill or control 90 percent
  GR90 ECHCO: 11.6 g ae/ha
LEFCH (Leptochloa chinensis, Chinese sprangletop), 2.19 g ae/ha
  Mean Visual Injury (%)-21 Days After Application LEFCH: 0%
LEFCH (Leptochloa chinensis, Chinese sprangletop), 4.38 g ae/ha
  Mean Visual Injury (%)-21 Days After Application LEFCH: 7%
LEFCH (Leptochloa chinensis, Chinese sprangletop), 8.75 g ae/ha
  Mean Visual Injury (%)-21 Days After Application LEFCH: 15%
LEFCH (Leptochloa chinensis, Chinese sprangletop), 17.5 g ae/ha
  Mean Visual Injury (%)-21 Days After Application LEFCH: 32%
LEFCH (Leptochloa chinensis, Chinese sprangletop), 35 g ae/ha
  Mean Visual Injury (%)-21 Days After Application LEFCH: 26%
LEFCH (Leptochloa chinensis, Chinese sprangletop), 70 g ae/ha
  Mean Visual Injury (%)-21 Days After Application LEFCH: 40%
LEFCH (Leptochloa chinensis, Chinese sprangletop), dose to kill or control 50 percent
  GR50 LEFCH: >70 g ae/ha
LEFCH (Leptochloa chinensis, Chinese sprangletop), dose to kill or control 90 percent
  GR90 LEFCH: >70 g ae/ha
ORYSA (Oryza sativa ‘Clearfield 171’, rice), 2.19 g ae/ha
  Mean Visual Injury (%)-21 Days After Application ORYSA ‘Clearfield 171’: 0%
ORYSA (Oryza sativa ‘Clearfield 171’, rice), 4.38 g ae/ha
  Mean Visual Injury (%)-21 Days After Application ORYSA ‘Clearfield 171’: 0%
ORYSA (Oryza sativa ‘Clearfield 171’, rice), 8.75 g ae/ha
  Mean Visual Injury (%)-21 Days After Application ORYSA ‘Clearfield 171’: 1%
ORYSA (Oryza sativa ‘Clearfield 171’, rice), 17.5 g ae/ha
  Mean Visual Injury (%)-21 Days After Application ORYSA ‘Clearfield 171’: 2%
ORYSA (Oryza sativa ‘Clearfield 171’, rice), 35 g ae/ha
  Mean Visual Injury (%)-21 Days After Application ORYSA ‘Clearfield 171’: 6%
ORYSA (Oryza sativa ‘Clearfield 171’, rice), 70 g ae/ha
  Mean Visual Injury (%)-21 Days After Application ORYSA ‘Clearfield 171’: 8%
ORYSA (Oryza sativa ‘Clearfield 171’, rice), dose to kill or control 50 percent
  GR50 ORYSA ‘Clearfield 171’: >70 g ae/ha
ORYSA (Oryza sativa ‘Clearfield 171’, rice), dose to kill or control 90 percent
  GR90 ORYSA ‘Clearfield 171’: >70 g ae/ha
ORYSA (Oryza sativa ‘Wells’, rice), 2.19 g ae/ha
  Mean Visual Injury (%)-21 Days After Application ORYSA ‘Wells’: 0%
ORYSA (Oryza sativa ‘Wells’, rice), 4.38 g ae/ha
  Mean Visual Injury (%)-21 Days After Application ORYSA ‘Wells’: 0%
ORYSA (Oryza sativa ‘Wells’, rice), 8.75 g ae/ha
  Mean Visual Injury (%)-21 Days After Application ORYSA ‘Wells’: 0%
ORYSA (Oryza sativa ‘Wells’, rice), 17.5 g ae/ha
  Mean Visual Injury (%)-21 Days After Application ORYSA ‘Wells’: 2%
ORYSA (Oryza sativa ‘Wells’, rice), 35 g ae/ha
  Mean Visual Injury (%)-21 Days After Application ORYSA ‘Wells’: 0%
ORYSA (Oryza sativa ‘Wells’, rice), 70 g ae/ha
  Mean Visual Injury (%)-21 Days After Application ORYSA ‘Wells’: 0%
ORYSA (Oryza sativa ‘Wells’, rice), dose to kill or control 50 percent
  GR50 ORYSA ‘Wells’: >70 g ae/ha
ORYSA (Oryza sativa ‘Wells’, rice), dose to kill or control 90 percent
  GR90 ORYSA ‘Wells’: >70 g ae/ha
SCPJU (Scirpus juncoides, Japanese bulrush), 2.19 g ae/ha
  Mean Visual Injury (%)-21 Days After Application SCPJU: 100%
SCPJU (Scirpus juncoides, Japanese bulrush), 4.38 g ae/ha
  Mean Visual Injury (%)-21 Days After Application SCPJU: 88%
SCPJU (Scirpus juncoides, Japanese bulrush), 8.75 g ae/ha
  Mean Visual Injury (%)-21 Days After Application SCPJU: 100%
SCPJU (Scirpus juncoides, Japanese bulrush), 17.5 g ae/ha
  Mean Visual Injury (%)-21 Days After Application SCPJU: 100%
SCPJU (Scirpus juncoides, Japanese bulrush), 35 g ae/ha
  Mean Visual Injury (%)-21 Days After Application SCPJU: 100%
SCPJU (Scirpus juncoides, Japanese bulrush), 70 g ae/ha
  Mean Visual Injury (%)-21 Days After Application SCPJU: 100%
SCPJU (Scirpus juncoides, Japanese bulrush), dose to kill or control 50 percent
  GR50 SCPJU: <42.19 g ae/ha
SCPJU (Scirpus juncoides, Japanese bulrush), dose to kill or control 90 percent
  GR90 SCPJU: 4.9 g ae/ha
SEBEX (Sesbania exaltata, hemp sesbania), 2.19 g ae/ha
  Mean Visual Injury (%)-21 Days After Application SEBEX: 53%
SEBEX (Sesbania exaltata, hemp sesbania), 4.38 g ae/ha
  Mean Visual Injury (%)-21 Days After Application SEBEX: 90%
SEBEX (Sesbania exaltata, hemp sesbania), 8.75 g ae/ha
  Mean Visual Injury (%)-21 Days After Application SEBEX: 99%
SEBEX (Sesbania exaltata, hemp sesbania), 17.5 g ae/ha
  Mean Visual Injury (%)-21 Days After Application SEBEX: 99%
SEBEX (Sesbania exaltata, hemp sesbania), 35 g ae/ha
  Mean Visual Injury (%)-21 Days After Application SEBEX: 100%
SEBEX (Sesbania exaltata, hemp sesbania), 70 g ae/ha
  Mean Visual Injury (%)-21 Days After Application SEBEX: 100%
SEBEX (Sesbania exaltata, hemp sesbania), dose to kill or control 50 percent
  GR50 SEBEX: <2.19 g ae/ha
SEBEX (Sesbania exaltata, hemp sesbania), dose to kill or control 90 percent
  GR90 SEBEX: 5.8 g ae/ha
